{"source": "patent US20110190321A1", "about": "“[…] FOR EGFR INHIBITOR TREATMENT” (priority 2007, published 2011)", "key": {"[1]": {"tested_on": "NSCLC patients for whom standard therapy for advanced disease has failed", "details": "single agent versus placebo, BR.21; cited from earlier work"}, "[2]": {"details": "patients with cancer, 150 mg/day dose; 500 ng/ml is the average concentration targeted for clinical efficacy; cited from earlier work"}, "[3]": {"tested_on": "patients with advanced NSCLC following failure of at least one prior chemotherapy regimen", "experiment": "Open-label predictive marker identification Phase II study of Tarceva monotherapy 150 mg/day; RECIST response and survival", "assay_type": "in vivo, human", "details": "102 patients with evaluable microarray data", "method": "The selection of this dose was based on pharmacokinetic parameters, as well as the safety and tolerability profile of this dose observed in Phase I, II and III trials in heavily pre-treated patients with advanced cancer. Drug levels seen in the plasma of patients with cancer receiving the 150 mg/day dose were consistently above the average plasma concentration of 500 ng/ml targeted for clinical efficacy.\nThis was an open-label, predictive marker identification Phase II study. The study was conducted in approximately 26 sites in about 12 countries. 264 patients with advanced NSCLC following failure of at least one prior chemotherapy regimen were enrolled over a 12 month period. […] Dose reductions were permitted based on tolerability to drug therapy. Clinical and laboratory parameters were assessed to evaluate disease control and toxicity. Treatment continued until disease progression, unacceptable toxicity or death. The study design is depicted in FIG. 1.\nThe RECIST (Uni-dimensional Tumour Measurement) criteria were used to evaluate response. These criteria can be found under the following link: […]\nA regular status check every 3 months was performed either by a patient's visit to the clinic or by telephone. All deaths were recorded. […]"}}}
{"smiles": "C#Cc1cccc(Nc2ncnc3cc(OCCOC)c(OCCOC)cc23)c1", "note": "[Erlotinib, erlotinib]", "values": [{"measurement": "survival of NSCLC patients", "setting": "[1]", "value": "significantly prolongs and improves the survival"}, {"measurement": "Drug levels in plasma", "setting": "[2]", "value": "> 500", "unit": "ng/mL"}, {"measurement": "Best Response PD", "setting": "[3]", "value": "(48.0%)"}, {"measurement": "Best Response PR", "setting": "[3]", "value": "(5.9%)"}]}
